Results reported in US20150089682A1, “ALS Inhibitor Herbicide Tolerant B. Napus Mutants” (priority 2012, published 2015).

How the values were obtained:
[1] = target: T1, mixture of S653N and W574L ALS enzymes (Arabidopsis thaliana, UniProt P17597); assay type: biochemical; conditions: for Resistance Factor S653N & W574L: relative to WT, calculated
T1 construct: crude E. coli extract was used
Method: (§1) Assays were initiated by adding enzyme and terminated after 75 min incubation at 30° C. by the addition to 40 μl 0.5 M H2SO4. […] Reaction velocities were tiffed to the Michalis-Menten equation with the XLFit curve fitting program.
(§2) To characterize the response of a mixture of two different ALS enzymes to a given ALS inhibitor the following assumptions were made: • a inhibition is competitive and reversible • b. in the absence of inhibitor, equal activities of the ALS (mutant) enzymes 1 and 2 are present
(§3) Using experimentally determined pI50-values for various ALS-inhibiting herbicides, enzyme activities at different inhibitor concentrations were calculated (see Theory) for each ALS enzyme. Total ALS activity at any given inhibitor concentration is the sum of the activity of (mutant) enzyme 1 and (mutant) enzyme 2. If the experimentally determined pI50-value was <4, pI50=3.0 was used for the calculations. If the calculated pI50-value was 3.0, the pI50 was redefined as <4.

[2] = target: T2, mixture of P197S and W574L ALS enzymes (Arabidopsis thaliana, UniProt P17597); assay type: biochemical; conditions: for Resistance Factor P197S & W574L: relative to WT, calculated
T2 construct: crude E. coli extract was used
Method: as §1, §2, §3

[3] = test system: spring oilseed rape variety ABILITY; experiment: Herbicide tolerance in the field, visible phytotoxicity; assay type: in vivo, Brassica napus; conditions: ABILITY, field, 18 days after application, 0%=no phytotoxic effects, 100%=all plants killed
Description: (§4) Seeds of spring oilseed rape homozygous for HETO108 and HETO121 were sown in a field according to typical practical agricultural methods. The registered spring oilseed rape variety ABILITY served as a comparison. All plants were cultivated up to BBCH stage 14 (four true leaves of the oilseed rape plants). Afterwards, the herbicides mentioned in table 2 have been applied to the oilseed rape plants by using specific spray equipment for small plot applications. The water amount used was 200 L/ha.

[4] = test system: spring oilseed rape homozygous for HETO108 and HETO121; experiment: as above; assay type: in vivo, Brassica napus; conditions: HETO108-HETO121, field, 18 days after application, 0%=no phytotoxic effects, 100%=all plants killed
Description: as §4

[5] = target: T3, Arabidopsis thaliana P197S-mutant ALS (Arabidopsis thaliana, UniProt P17597, E575Q/P197S); experiment: biochemical; conditions: for Resistance Factor P197S: relative to WT, from measured pI50
T3 construct: vector-encoded N-terminal fusion of pET-32a(+) (Trx/His/S tag by own knowledge); made in house; host or cells: Escherichia coli AD494
Method: (§5) Bacteria were grown at 37° C. in LB-medium containing 100 mg/1 carbenicillin and 25 mg/1 canamycin, induced with 1 mM isopropyl-β-D-thiogalactopyranoside at an OD600 of 0.6, cultivated for 16 hours at 18° C. and harvested by centrifugation. Bacterial pellets were resusupended in 100 mM sodium phosphate buffer pH 7.0 containing 0.1 mM thiamine-pyrophosphate, 1 mM MgCl2, and 1 μM FAD at a concentration of 1 gram wet weight per 25 ml of buffer and disrupted by sonification. The crude protein extract obtained after centrifugation was used for ALS activity measurements.
as §1

[6] = target: T4, Arabidopsis thaliana W574L-mutant ALS (Arabidopsis thaliana, UniProt P17597, E575Q/W574L); experiment: biochemical; conditions: for Resistance Factor W574L: relative to WT, from measured pI50
T4 construct: vector-encoded N-terminal fusion of pET-32a(+) (Trx/His/S tag by own knowledge); made in house; host or cells: Escherichia coli AD494
Method: as §5, §1

[7] = test system: ALS enzyme in leaves of wild-type Brassica lines; experiment: ALS enzyme activity in leaves; assay type: biochemical, Brassica napus; conditions: wild-type leaves (row IV) compared with mutant lines (rows I-III), FIG. 3
Method: (§6) The inhibitory effect of ALS inhibiting herbicides on ALS enzymes encoded by the different mutant AHAS alleles was tested in leaf material essentially as described by Shimizu et al, 2008, Plant Physiol. 147:1976.

[8] = test system: ALS enzymes in leaves of Brassica lines homozygous for HETO108, HETO121 or both; experiment: ALS enzyme activity in leaves; assay type: biochemical, Brassica napus; conditions: FIG. 3
Method: as §6

[9] = target: T5, Arabidopsis thaliana wild-type ALS (Arabidopsis thaliana, UniProt P17597, E575Q); experiment: biochemical; conditions: measured; crude extract of E. coli expressed enzyme; read-out: pI50 WT (converted)
T5 construct: vector-encoded N-terminal fusion of pET-32a(+) (Trx/His/S tag by own knowledge); made in house; host or cells: Escherichia coli AD494
Method: as §5, §1

[10] = target: T6, Arabidopsis thaliana S653N-mutant ALS (Arabidopsis thaliana, UniProt P17597, E575Q/S653N); experiment: biochemical
T6 construct: vector-encoded N-terminal fusion of pET-32a(+) (Trx/His/S tag by own knowledge); made in house; host or cells: Escherichia coli AD494
Method: as §5, §1

[11] = calculated for a mixture of equal activities of the two enzymes, pI50=3.0 used where measured <4
[12] = Brassica napus, topical, 432 h, AI dose rate 50 gai/ha, read-out: % phytotox

Compound	Resistance Factor S653N & W574L [1]	Resistance Factor P197S & W574L [2]	% phytotox ([3]; AI dose rate 30 gai/ha) [%]	% phytotox ([4]; AI dose rate 30 gai/ha) [%]	Resistance Factor P197S [5]	Resistance Factor W574L [6]	inhibition of ALS enzyme activity in leaves [7]	herbicide tolerance of ALS activity in leaves, TCM compared with FS ([8]; mutant lines (rows I-III))	pI50 S653N & W574L [1, 11]	pI50 P197S & W574L [2, 11]	pest or weed control at 50 g/ha [3, 12] [%]	pest or weed control at 50 g/ha [4, 12] [%]	IC50 [9] [nM]	IC50 ([10]; measured, crude extract of E. coli expressed enzyme, read-out: pI50 S653N (converted)) [nM]	Resistance Factor S653N ([10]; relative to WT, from measured pI50)	IC50 ([5]; measured, crude extract of E. coli expressed enzyme, read-out: pI50 P197S (converted)) [nM]	IC50 ([6]; measured, crude extract of E. coli expressed enzyme, read-out: pI50 W574L (converted)) [µM]	tolerance of ALS activity in leaves by mutation ([8]; P197S (row II) compared with W574L (row III) and both (row I))
COC(=O)c1csc(C)c1S(=O)(=O)NC(=O)n1nc(OC)n(C)c1=O [Thiencarbazone-methyl, thiencarbazone-methyl]	316	1259	100	3	1259	1259	inhibited at lower concentrations of the herbicides than in leaves comprising the mutant AHAS alleles	the herbicide tolerance is higher for TCM than for FS	–	–	–	–	–	–	–	–	–	–
COc1cc(OC)nc(NC(=O)NS(=O)(=O)c2cc(NC=O)ccc2C(=O)N(C)C)n1 [Foramsulfuron, foramsulfuron]	316	398	–	–	16	7943	inhibited at lower concentrations of the herbicides than in leaves comprising the mutant AHAS alleles	–	5.7	5.6	99	28	6.31	63.1	10	100	50.1	the tolerance in lines with the P197S mutation (row II) is lower than the tolerance in lines with the W574L mutation (row III) and with both the P197S and W574L mutation (row I)
